Laboratory results published in paper PMC4821708 (Biochimica et biophysica acta, 2016).
One block for each molecule: values may come before it.

Legend:
Cytoglobin (Cygb) [1] = biological target: T1, Cytoglobin (Cygb) (Homo sapiens, UniProt Q8WWM9); experiment: LC-MS/MS of lipid oxidation products by Cygb/H2O2; format: biochemical
Cytoglobin (Cygb) [2] = biological target: T1, Cytoglobin (Cygb); format: biochemical; details: cygb:lipid liposomes
[3] = biological target: Cytoglobin (Cygb Δ1-15Δ174-190) (Homo sapiens, UniProt Q8WWM9, Δ1-15Δ174-190); experiment: differential absorbance spectroscopy titration, […] fit; format: binding
Sequence of Cytoglobin (Cygb Δ1-15Δ174-190) (Q8WWM9 16-173, stated change not applied): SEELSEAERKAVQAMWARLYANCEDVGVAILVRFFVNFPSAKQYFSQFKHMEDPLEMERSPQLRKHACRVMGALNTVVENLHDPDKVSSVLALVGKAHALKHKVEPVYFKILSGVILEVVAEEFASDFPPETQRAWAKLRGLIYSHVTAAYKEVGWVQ

[4] = biological target: Cytoglobin (Cygb), wild type (Homo sapiens, UniProt Q8WWM9); experiment: as above; format: binding
Sequence of Cytoglobin (Cygb), wild type (Q8WWM9 whole entry): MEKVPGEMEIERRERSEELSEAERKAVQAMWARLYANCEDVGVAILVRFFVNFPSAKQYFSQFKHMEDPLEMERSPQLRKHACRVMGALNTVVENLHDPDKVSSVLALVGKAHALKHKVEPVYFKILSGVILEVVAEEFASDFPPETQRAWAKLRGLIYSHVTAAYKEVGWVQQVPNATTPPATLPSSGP

T1 sequence (Q8WWM9 whole entry): as above

Structure (SMILES): CCCCC/C=C\C/C=C\C/C=C\C/C=C\CCCC(=O)O[C@H](COC(=O)CCCCCCCCCCCCCCCCC)COP(=O)(O)O [SAPA, 1-stearoyl-2-arachidonoyl-sn-glycero-3-phosphate]
LC-MS/MS of lipid oxidation products by Cygb/H2O2 (Cytoglobin (Cygb) [1]): 5.6 ± 0.1 picomoles of oxidation products

activation of peroxidase activity, Amplex Red oxidation, 1:25 Cygb:lipid liposom (Cytoglobin (Cygb) [2]): 1.6 fold increase in rate
Structure (SMILES): CCCCCCCC/C=C\CCCCCCCC(=O)OC[C@H](COP(=O)(O)O)OC(=O)CCCCCCC/C=C\CCCCCCCC [DOPA, 1,2-dioleoyl-sn-glycero-3-phosphate]

Structure (SMILES): CCCCCCCC/C=C\CCCCCCCC(=O)O [OA, oleic acid]
Kd [3]: 3000 ± 1800 nM
Kd [4]: 2300 ± 1000 nM
